The IC50 is the concentration that inhibits the measured activity by half.

IC50 data for three compounds are collected here from US7378425B2, “(1-Indanone)-(1,2,3,6-tetrahydropyridine) compounds” (Eisai R & D Management Co., Ltd., priority 2002, dated 2008).

Counter-ions that a name gives are not always drawn. Like-named read-outs stand apart in the source and are kept apart here.

The target of assay [1] is T1, acetylcholinesterase (rat brain homogenate) (Rattus norvegicus, UniProt P37136).
T1 construct: Using a rat brain homogenate as a source of acetylcholinesterase; from tissue; host or cells: rat brain homogenate
T1 sequence (P37136 32-614): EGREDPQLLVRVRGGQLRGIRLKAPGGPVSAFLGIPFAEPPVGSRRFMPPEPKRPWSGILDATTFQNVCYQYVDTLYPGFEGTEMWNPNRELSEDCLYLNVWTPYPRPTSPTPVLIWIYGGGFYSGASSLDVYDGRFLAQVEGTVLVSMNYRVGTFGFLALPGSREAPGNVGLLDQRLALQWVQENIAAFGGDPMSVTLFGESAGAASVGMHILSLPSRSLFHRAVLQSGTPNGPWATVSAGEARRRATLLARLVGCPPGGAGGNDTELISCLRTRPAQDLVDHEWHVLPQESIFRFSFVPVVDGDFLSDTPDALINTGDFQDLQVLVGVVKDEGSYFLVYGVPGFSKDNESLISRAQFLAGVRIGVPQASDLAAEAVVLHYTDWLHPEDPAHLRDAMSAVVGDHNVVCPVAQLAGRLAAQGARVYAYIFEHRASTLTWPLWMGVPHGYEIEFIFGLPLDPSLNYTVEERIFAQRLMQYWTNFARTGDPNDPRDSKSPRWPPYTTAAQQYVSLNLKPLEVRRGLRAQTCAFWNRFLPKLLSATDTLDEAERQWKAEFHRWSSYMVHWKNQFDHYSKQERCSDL
The assay can be described thus: biochemical. Here is the method:
Inhibitory Effect on Acetylcholinesterase
To DTNB (5,5′-dithiobis(2-nitrobenzoic acid)), acethylthiocholine (as a substrate) and a test compound was added the rat brain homogenate and incubated.

In assay [2] the target is sigma receptor (guinea pig brain crude membrane fraction). Kind of assay: Sigma receptor binding assay (3H-DTG). Particulars: inhibition of 3H-DTG binding to guinea pig brain crude membrane fraction, 25° C., 1 hour. On the procedure:
Sigma Receptor Binding Assay
(1) Preparation of Receptor
The washing procedure was repeated once more under the same conditions, and the resulting crude membrane fraction was subjected to the assay.
The specific binding and the non-specific binding in the absence of the test compound were determined in the same way as above except for using 50% DMSO solution instead of the test compound and using a 100 μM Haloperidol solution instead of the test compound, respectively.
(3) Determination of Inhibition
The inhibitions of the test compound at individual concentrations were determined from the ratio of the specific binding in the presence of the test compound to the specific binding in the absence thereof. The dose-response curve was regressed according to a logit-log model in which the ratio of the specific binding in the presence of the test compound to the specific binding in the absence thereof was subjected to logit transformation and plotted against the common logarithm value of each concentration.

In assay [1], `COc1cc2c(cc1OC)C(=O)C(CC1=CCN(Cc3ccccc3)CC1)C2` (stereo not shown) [Example 1, 1-benzyl-4-[(5,6-dimethoxy-1-indanon)-2-yl]methyl-1,2,3,6-tetrahydropyridine hydrochloride] gave a concentration for half-maximal inhibition (IC50) of 4.2 nM.
Take `CCOc1cc2c(cc1OCC)C(=O)C(F)(CC1=CCN(Cc3ccccc3)CC1)C2` (stereo not shown) [Example 3, 1-benzyl-4-[(5,6-diethoxy-2-fluoro-1-indanon)-2-yl]methyl-1,2,3,6-tetrahydropyridine hydrochloride]: the 50% inhibitory concentration (IC50) is 0.4 nM in assay [1] (rat brain homogenate, acetylthiocholine substrate, DTNB, absorbance at 412 nm, read-out: Acetylcholinesterase inhibition IC50) and 4.7 nM in assay [2].
Consider `CCOc1cc2c(cc1OCC)C(=O)C(CC1=CCN(Cc3ccccc3)CC1)C2` (stereo not shown) [Example 2, 1-benzyl-4-[(5,6-diethoxy-1-indanon)-2-yl]methyl-1,2,3,6-tetrahydropyridine hydrochloride], for which the IC50 in assay [2] was determined as 5 nM.
